Positions of bridges follow the written chain, without caps; N, C: chain ends. Residues, ends and D or L forms follow the SMILES beside them.
Legend:
[1] = test system: heart, kidney and liver of mice; experiment: Histological and biochemical analysis of heart, kidney and liver; type: in vivo, mouse
Method: To test potential toxic effects of MM54 and MM193 in vivo, mice were administered 2 mg/kg of MM54, MM193 or vehicle bi-weekly for 4 weeks. At sacrifice, blood was taken for analysis and the heart, kidney, aorta and liver removed, weighed and fixed for histological analysis. For the glycaemic study, animals were starved for 6 h prior to sacrifice. […]
In order to test potential toxic effects of MM54 in vivo, C57Bl/6J female mice were administered 2 mg/kg of MM54
or DMSO vehicle, bi-weekly for 4 weeks. At sacrifice, blood was taken for analysis and the heart, kidney, aorta and
liver removed, weighed and fixed for histological analysis (as shown in Figure S4). n=4 mice/group, 63 mean±SEM.

[2] = test system: C57Bl/6J female mice; experiment: Complete blood count; type: in vivo, mouse
Method: To test potential toxic effects of MM54 and MM193 in vivo, mice were administered 2 mg/kg of MM54, MM193 or vehicle bi-weekly for 4 weeks. At sacrifice, blood was taken for analysis and the heart, kidney, aorta and liver removed, weighed and fixed for histological analysis. For the glycaemic study, animals were starved for 6 h prior to sacrifice.
Total blood count DMSO MM54
Red blood cells (M/µl) 6,8 ± 0,9 7,5 ± 0,3
Mean corpuscular volume (fl) 46,4 ± 0,2 47,2 ± 0,4
Mean corpuscular haemoglobin (pg) 13,0 ± 0,0 13,2 ± 0,2
Mean corpuscular haemoglobin concentration (g/dl) 27,9 ± 0,1 27,9 ± 0,3 Red cell distribution width (%) 15,7 ± 0,2 16,1 ± 0,1
Table S5. Blood analysis after MM54 treatment
In order to test potential toxic effects of MM54 in vivo, C57Bl/6J female mice were administered 2 mg/kg of MM54 or DMSO vehicle, bi-weekly for 4 weeks. At sacrifice, blood was taken for analysis and the heart, kidney, aorta and liver removed, weighed and fixed for histological analysis (as shown in Figure S4). n=4 mice/group, 63 mean±SEM.

[3] = MM54 2 mg/kg bi-weekly, 4 weeks, female C57Bl/6J mice, n=4, mean±SEM

For `CC(C)C[C@@H]1NC(=O)[C@H](CCCNC(=N)N)NC(=O)[C@@H]2CCCN2C(=O)[C@H](CCCNC(=N)N)NC(=O)[C@@H](NC(=O)[C@H](Cc2c[nH]cn2)NC(=O)[C@H](CCCCN)NC(=O)[C@@H]2CSSC[C@H](N)C(=O)N[C@@H](CCCNC(=N)N)C(=O)N3CCC[C@H]3C(=O)N[C@@H](CCCNC(=N)N)C(=O)N[C@@H](CC(C)C)C(=O)N2)CSSC[C@@H](C(=O)O)NC1=O` [MM54, cyclo(1–6)CRPRLC-KH-cyclo(9–14)CRPRLC] (H-CRPRLCKHCRPRLC-OH; disulfide 1-6, 9-14), the “histological and biochemical analysis of heart, kidney and liver” value ([1]; MM54 2 mg/kg bi-weekly for 4 weeks vs vehicle) was “revealed no differences between MM54-treated animals and vehicle controls”, the “overt adverse effects in vivo” value ([1]; present dose (2 mg/kg), repeated administration) was “does not exert any overt adverse effects in vivo” and the “complete blood count vs vehicle” value ([2]; MM54 2 mg/kg bi-weekly for 4 weeks, healthy animals) was “no significant differences”. The Basophils [2, 3] was 0,19 ± 0,12 K/µl, the Eosinophils [2, 3] was 0,52 ± 0,28 K/µl and the Haemoglobin [2, 3] was 9,9 ± 0,6 g/dl. The Hematocrit [2, 3] was 35,4 ± 1,9%, the Lymphocytes [2, 3] was 7,50 ± 0,51 K/µl and the Mean corpuscular haemoglobin [2, 3] was 13,2 ± 0,2 pg. The “Mean corpuscular haemoglobin concentration” value [2, 3] was 27,9 ± 0,3 g/dl, the Mean corpuscular volume [2, 3] was 47,2 ± 0,4 fl and the Mean platelet volume [2, 3] was 4,45 ± 0,16 fl. The Monocytes [2, 3] was 0,42 ± 0,11 K/µl, the Neutrophils [2, 3] was 2,56 ± 0,66 K/µl and the Platelet [2, 3] was 301 ± 27 K/µl. The Red blood cells [2, 3] was 7,5 ± 0,3 M/µl and the “Red cell distribution width” value [2, 3] was 16,1 ± 0,1%.

Source: publication PMC5841205, “Pharmacological targeting of apelin impairs glioblastoma growth” (Brain, 2017)
